In patent publication US6770597B2, “Benzohydrazide derivatives as herbicides and desiccant compositions containing them” (Ishihara Sangyo Kaisha, Ltd., priority 2002, dated 2004):

Legend:
Assay type in all cases: in vivo
[1] = test system: ivyleaf morningglory (Ipomoea hederacea, IPOHE); test: Greenhouse herbicide screen, post-emerge application, phytotoxicity rating; conditions: POST emergent, 14 days after application, scale 0-100
Summary of the method: (§1)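 Scoring at 14 days used a 0–100 scale, 100 being all plants dead, for weed control and crop injury alike. Rates ranged from 15 to 1000 g ai/ha, applied in acetone at 187 l/ha by track sprayer. Post-emerge treatment hit 2–3 leaf plants; pre-emerge treatment hit soil seeded one day earlier.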

[2] = test system: large crabgrass (Digitaria sanguinalis, DIGSA); test: as above; conditions: POST emergent, 14 days after application, scale 0-100
Summary of the method: as §1

[3] = test system: sicklepod (Cassia obtusifolia, CASOB); test: as above; conditions: POST emergent, 14 days after application, scale 0-100
Summary of the method: as §1

[4] = test system: johnsongrass (Sorghum halepense, SORHA); test: as above; conditions: POST emergent, 14 days after application, scale 0-100
Summary of the method: as §1

[5] = test system: lambsquarters (Chenopodium album, CHEAL); test: as above; conditions: POST emergent, 14 days after application, scale 0-100
Summary of the method: as §1

[6] = test system: common ragweed (Ambrosia artemisiifolia L., AMBEL); test: as above; conditions: POST emergent, 14 days after application, scale 0-100
Summary of the method: as §1

[7] = test system: velvetleaf (Abutilon theophrasti, ABUTH); test: as above; conditions: POST emergent, 14 days after application, scale 0-100
Summary of the method: as §1

[8] = test system: cocklebur (Xanthium strumarium, XANST); test: as above; conditions: POST emergent, 14 days after application, scale 0-100
Summary of the method: as §1

[9] = test system: green foxtail (Setaria viridis, SETVI); test: as above; conditions: POST emergent, 14 days after application, scale 0-100
Summary of the method: as §1

[10] = test system: redroot pigweed (Amaranthus retrofiexus, AMARE); test: as above; conditions: POST emergent, 14 days after application
Summary of the method: as §1

[11] = test system: barnyardgrass (Echinochloa crus-galli, ECHCG); test: as above; conditions: POST emergent, 14 days after application, scale 0-100
Summary of the method: as §1

[12] = test system: ivyleaf morningglory (Ipomoea hederacea, IPOHE); test: Greenhouse herbicide screen, pre-emerge application, phytotoxicity rating; conditions: PRE emergent, 14 days after application, rating scale 0-100
Summary of the method: as §1

[13] = test system: large crabgrass (Digitaria sanguinalis, DIGSA); test: as above; conditions: PRE emergent, 14 days after application, rating scale 0-100
Summary of the method: as §1

[14] = test system: sicklepod (Cassia obtusifolia, CASOB); test: as above; conditions: PRE emergent, 14 days after application, rating scale 0-100
Summary of the method: as §1

[15] = test system: johnsongrass (Sorghum halepense, SORHA); test: as above; conditions: PRE emergent, 14 days after application, rating scale 0-100
Summary of the method: as §1

[16] = test system: lambsquarters (Chenopodium album, CHEAL); test: as above; conditions: PRE emergent, 14 days after application, rating scale 0-100
Summary of the method: as §1

[17] = test system: common ragweed (Ambrosia artemisiifolia L., AMBEL); test: as above; conditions: PRE emergent, 14 days after application, rating scale 0-100
Summary of the method: as §1

[18] = test system: velvetleaf (Abutilon theophrasti, ABUTH); test: as above; conditions: PRE emergent, 14 days after application, rating scale 0-100
Summary of the method: as §1

[19] = test system: cocklebur (Xanthium strumarium, XANST); test: as above; conditions: PRE emergent, 14 days after application, rating scale 0-100
Summary of the method: as §1

[20] = test system: green foxtail (Setaria viridis, SETVI); test: as above; conditions: PRE emergent, 14 days after application, rating scale 0-100
Summary of the method: as §1

[21] = test system: redroot pigweed (Amaranthus retrofiexus, AMARE); test: as above; conditions: PRE emergent, 14 days after application, rating scale 0-100
Summary of the method: as §1

[22] = test system: barnyardgrass (Echinochloa crus-galli, ECHCG); test: as above; conditions: PRE emergent, 14 days after application, rating scale 0-100
Summary of the method: as §1

[23] = test system: field corn (Zea mays L., var. Dekalb 535, CORN); test: Greenhouse herbicide screen, pre-emerge application, crop damage rating; conditions: PRE emergent, 14 days after application, rating scale 0-100
Text: (§2) A standard greenhouse herbicide activity screening system was used to evaluate the herbicidal efficacy and crop safety of these test compounds. Seven broadleaf weed species including redroot pigweed (Amaranthus retrofiexus, AMARE), velvetleaf (Abutilon theophrasti, ABUTH), sicklepod (Cassia obtusifolia, CASOB), ivyleaf morningglory (Ipomoea hederacea, IPOHE), lambsquarters (Chenopodium album, CHEAL), common ragweed (Ambrosia artemisiifolia L., AMBEL), and cocklebur (Xanthium strumarium, XANST) were used as test species. Four grass weed species including green foxtail (Setaria viridis, SETVI), barnyardgrass (Echinochloa crus-galli, ECHCG), johnsongrass (Sorghum halepense, SORHA), and large crabgrass (Digitaria sanguinalis, DIGSA) were also used. In addition, four crop species, field corn (Zea mays L., var. Dekalb 535, CORN), soybean (Glycine max L., var. Pella 86, SOY), upland rice (Oryza sp., var.Cocodrie, RICE) and wheat (Triticum aestivum L.) were included.
(§3) All plants were grown in 10 cm square plastic pots which were filled with a sandy loam soil mix. For pre-emerge tests, seeds were planted one day prior to application of the test compounds. For post-emerge tests, seeds were planted 8-21 days prior to the test to allow emergence and good foliage development prior to application of the test substances. At the time of the post-emerge application, plants of all species were usually at the 2-3 leaf stage of development.
(§4) All test compounds were dissolved in acetone and applied to the test units in a volume of 187 l/ha. Test materials were applied at rates ranging from 15 g ai/ha to 1000 g ai/ha using a track sprayer equipped with a TJ8001E even flow flat fan spray nozzle. Plants were arranged on a shelf so that the top of the canopy (post-emerge) or top of the soil surface (pre-emerge) was 40-45 cm below the nozzle. Pressurized air was used to force the test solution through the nozzle as it was mechanically advanced (via electrically driven chain drive) over the top of all test plants/pots. This application simulates a typical commercial field herbicide application.
(§5) Pre-emergence tests were top watered immediately after treatment to incorporate the test materials, then routinely top-watered for normal growth. Post-emerge test units were always bottom-watered.
(§6) At 14 days after application of the test materials, phytotoxicity ratings were recorded. A rating scale of 0-100 was used as previously described in Research Methods in Weed Science, 2nd edition, B. Truelove, Ed., Southern Weed Science Society, Auburn University, Auburn, Ala., 1977. Briefly, “0” corresponds to no damage and “100” corresponds to complete death of all plants in the test unit. This scale was used both to determine efficacy against weed species and damage to crop species. Herbicide activity data for various compounds of this invention, which are shown by compound No. in Tables 1-12, are shown in Tables 13 and 14.

[24] = test system: upland rice (Oryza sp., var.Cocodrie, RICE); test: as above; conditions: PRE emergent, 14 days after application, rating scale 0-100
Text: as §2, §3, §4, §5, §6

[25] = test system: field corn (Zea mays L., var. Dekalb 535, CORN); test: Greenhouse herbicide screen, post-emerge application, crop damage rating; conditions: POST emergent, 14 days after application, scale 0-100
Text: as §2, §3, §4, §5, §6

[26] = test system: upland rice (Oryza sp., var.Cocodrie, RICE); test: as above; conditions: POST emergent, 14 days after application, scale 0-100
Text: as §2, §3, §4, §5, §6

Structure (SMILES): CN1CCN(NC(=O)c2cc(-n3c(=O)cc(C(F)(F)F)n(C)c3=S)c(F)cc2Cl)CC1 [Compound 1-14]
- phytotoxicity rating IPOHE ([1]; 63 g ai/ha): 100
- phytotoxicity rating IPOHE ([1]; 250 g ai/ha): 100
- phytotoxicity rating DIGSA ([2]; 63 g ai/ha): 0
- phytotoxicity rating DIGSA ([2]; 250 g ai/ha): 0
- phytotoxicity rating CASOB ([3]; 63 g ai/ha): 0
- phytotoxicity rating CASOB ([3]; 250 g ai/ha): 0
- phytotoxicity rating SORHA ([4]; 63 g ai/ha): 0
- phytotoxicity rating SORHA ([4]; 250 g ai/ha): 0
- phytotoxicity rating CHEAL ([5]; 63 g ai/ha): 0
- phytotoxicity rating CHEAL ([5]; 250 g ai/ha): 70
- phytotoxicity rating AMBEL ([6]; 63 g ai/ha): 0
- phytotoxicity rating AMBEL ([6]; 250 g ai/ha): 50
- phytotoxicity rating ABUTH ([7]; 63 g ai/ha): 0
- phytotoxicity rating ABUTH ([7]; 250 g ai/ha): 35
- phytotoxicity rating XANST ([8]; 63 g ai/ha): 70
- phytotoxicity rating XANST ([8]; 250 g ai/ha): 70
- phytotoxicity rating SETVI ([9]; 63 g ai/ha): 0
- phytotoxicity rating SETVI ([9]; 250 g ai/ha): 0
- phytotoxicity rating AMARE ([10]; 63 g ai/ha, scale 0-100 (0 no damage, 100 complete death)): 0
- phytotoxicity rating AMARE ([10]; 250 g ai/ha, scale 0-100): 30
- phytotoxicity rating ECHCO ([11]; 63 g ai/ha): 0
- phytotoxicity rating ECHCO ([11]; 250 g ai/ha): 0
- phytotoxicity rating IPOHE ([12]; 63 g ai/ha): 10
- phytotoxicity rating IPOHE ([12]; 250 g ai/ha): 65
- phytotoxicity rating DIGSA ([13]; 63 g ai/ha): 55
- phytotoxicity rating DIGSA ([13]; 250 g ai/ha): 70
- phytotoxicity rating CASOB ([14]; 63 g ai/ha): 0
- phytotoxicity rating CASOB ([14]; 250 g ai/ha): 50
- phytotoxicity rating SORHA ([15]; 63 g ai/ha): 70
- phytotoxicity rating SORHA ([15]; 250 g ai/ha): 95
- phytotoxicity rating CHEAL ([16]; 63 g ai/ha): 100
- phytotoxicity rating CHEAL ([16]; 250 g ai/ha): 100
- phytotoxicity rating AMBEL ([17]; 63 g ai/ha): 35
- phytotoxicity rating AMBEL ([17]; 250 g ai/ha): 70
- phytotoxicity rating ABUTH ([18]; 63 g ai/ha): 30
- phytotoxicity rating ABUTH ([18]; 250 g ai/ha): 90
- phytotoxicity rating XANST ([19]; 63 g ai/ha): 40
- phytotoxicity rating XANST ([19]; 250 g ai/ha): 65
- phytotoxicity rating SETVI ([20]; 63 g ai/ha): 0
- phytotoxicity rating SETVI ([20]; 250 g ai/ha): 55
- phytotoxicity rating AMARE ([21]; 63 g ai/ha): 95
- phytotoxicity rating AMARE ([21]; 250 g ai/ha): 100
- phytotoxicity rating ECHCG ([22]; 63 g ai/ha): 0
- phytotoxicity rating ECHCG ([22]; 250 g ai/ha): 70
- crop damage rating CORN ([23]; 63 g ai/ha): 0
- crop damage rating CORN ([23]; 250 g ai/ha): 0
- crop damage rating RICE ([24]; 63 g ai/ha): 0
- crop damage rating RICE ([24]; 250 g ai/ha): 50
- crop damage rating CORN ([25]; 63 g ai/ha): 0
- crop damage rating CORN ([25]; 250 g ai/ha): 50
- crop damage rating RICE ([26]; 63 g ai/ha): 0
- crop damage rating RICE ([26]; 250 g ai/ha): 0
